Laboratory results reported in the NIST ThermoML archive (doi:10.1016/j.tca.2008.12.007).

Assay: xn = mol fraction of the nth substance listed
Details: 101 kPa, Liquid, Vibrating tube method

C1CCCNCC1 [azacycloheptane] + O
mass density [kg/m3]
Details | 333.15 K | 343.15 K | 348.15 K | 353.15 K
x2 = 0.0199 | – | 837.91 | 833.38 | 828.84
x2 = 0.0395 | – | 838.84 | 834.3 | 829.73
x2 = 0.0821 | – | 841.28 | 836.69 | 832.07
x2 = 0.1198 | – | 843.4 | 838.79 | 834.14
x2 = 0.1594 | – | 845.7 | 841.06 | 836.38
x2 = 0.1994 | – | 848.34 | 843.67 | 838.95
x2 = 0.2498 | – | 851.65 | 846.94 | 842.2
x2 = 0.3 | – | 855.03 | 850.31 | 845.54
x2 = 0.3499 | – | 858.87 | 854.12 | 849.32
x2 = 0.4 | – | 862.76 | 857.99 | 853.18
x2 = 0.4529 | – | 867.39 | 862.6 | 857.76
x2 = 0.5008 | – | 871.87 | 867.08 | 862.24
x2 = 0.5041 | – | 871.87 | 867.07 | 862.22
x2 = 0.5508 | – | 876.55 | 871.76 | 866.92
x2 = 0.5992 | 891.02 | 881.58 | 876.78 | 871.95
x2 = 0.65 | 896.87 | 887.5 | 882.74 | 877.92
x2 = 0.699 | 903.03 | 893.76 | 889.04 | 884.27
x2 = 0.7496 | 910.24 | 901.13 | 896.49 | 891.79
x2 = 0.7994 | 918.61 | 909.74 | 905.21 | 900.62
x2 = 0.8398 | 926.57 | 917.97 | 913.57 | 909.09
x2 = 0.8799 | 936.13 | 927.91 | 923.42 | 918.78
x2 = 0.92 | 948.28 | 942.9 | 938.07 | 933.73
x2 = 0.9599 | 964.06 | 958.32 | 954.48 | –
x2 = 0.96 | 964.12 | 958.4 | 954.96 | –
x2 = 0.9699 | 968.88 | 963.25 | – | –
x2 = 0.98 | 974.02 | 967.74 | 964.39 | 961.1
